Experimental data as given in patent publication US9326513B2, “Fungicidal compositions” (Syngenta Participations AG, priority 2011, dated 2016).

How the values were obtained:
Assay type in all cases: in vivo
Conditions in all cases: foliar, compared to untreated control leaf disks, read-out: disease control
[1] = test system: Blumeria graminis f. sp. tritici (Erysiphe graminis f. sp. tritici); test: Blumeria graminis f. sp. tritici / wheat / leaf disc preventative (powdery mildew on wheat)
Summary of the method: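 Wheat leaf segments (cv. Kanzler) on agar were sprayed with formulated compound in water, inoculated with powdery mildew 1 day later, and kept at 20° C, 60% rh (24 h dark, then 12 h light/12 h dark). Percent disease control versus untreated scored 6-8 days after application; tested at 200 ppm.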

[2] = test system: Puccinia recondita f. sp. tritici; test: Puccinia recondita f. sp. tritici / wheat / leaf disc preventative (brown rust)
From the text: Puccinia recondita f. sp. tritici/Wheat/Leaf Disc Preventative (Brown Rust) Wheat leaf segments cv. Kanzler were placed on agar in multiwell plates (24-well format) and sprayed with the formulated test compound diluted in water. The leaf disks were inoculated with a spore suspension of the fungus 1 day after application.

[3] = test system: Puccinia recondita f. sp. tritici; test: Puccinia recondita f. sp. tritici / wheat / leaf disc curative (brown rust)
Procedure: Puccinia recondita f. sp. tritici/Wheat/Leaf Disc Curative (Brown Rust) Wheat leaf segments cv. Kanzler are placed on agar in multiwell plates (24-well format). The leaf segments are inoculated with a spore suspension of the fungus. Plates were stored in darkness at 19° C. and 75% rh. The formulated test compound diluted in water was applied 1 day after inoculation.

Pyrenophora teres = Pyrenophora teres / barley / leaf disc preventative (net blotch)
From the text: Pyrenophora teres/Barley/Leaf Disc Preventative (Net Blotch) Barley leaf segments cv. Hasso were placed on agar in a multiwell plate (24-well format) and sprayed with the formulated test compound diluted in water. The leaf segments were inoculated with a spore suspension of the fungus 2 days after application.

Measured: pest or weed control at 200 ppm

CCN(C)/C=N/c1cc(Br)c(OC(C)C2CCc3ccccc3C2)nc1C (stereo not drawn) [Q.225]
≥ 50%: [1] | [2] | [3] | Pyrenophora teres

CCN(C)/C=N/c1cc(Br)c(OCC2CCCc3ccccc32)nc1C (stereo not drawn) [Q.226]
≥ 50%: [1] | [2] | [3] | Pyrenophora teres

CCN(C)/C=N/c1cc(Br)c(OC(C)C2CCCc3ccccc32)nc1C (stereo not drawn) [Q.227]
≥ 50%: [1] | [2] | [3] | Pyrenophora teres

CCc1cc(/N=C/N(C)CC)c(C)nc1OC(C)c1cc(F)cc(F)c1 (stereo not drawn) [Q.228]
≥ 50%: [1] | [2] | [3] | Pyrenophora teres

C#Cc1cc(/N=C/N(C)CC)c(C)nc1OC(C)c1cc(F)cc(F)c1 (stereo not drawn) [Q.229]
≥ 50%: [1] | [2] | [3] | Pyrenophora teres

CCN(C)/C=N/c1cc(Br)c(OC2CCC(C)=C(C)CC2)nc1C [Q.231]
≥ 50%: [1] | [2] | [3] | Pyrenophora teres

CCN(C)/C=N/c1cc(Br)c(OC2Cc3ccc(Cl)cc3C2)nc1C (stereo not drawn) [Q.233]
≥ 50%: [1] | [2] | [3] | Pyrenophora teres

CCN(C)/C=N/c1cc(Br)c(OC(C)c2ccc3c(c2)CCCC3)nc1C (stereo not drawn) [Q.238]
≥ 50%: [1] | [2] | [3] | Pyrenophora teres

CCN(C)/C=N/c1cc(Br)c(OC2CCCC(Oc3ccccn3)C2)nc1C (stereo not drawn) [Q.240]
≥ 50%: [1] | [2] | [3] | Pyrenophora teres

CCN(C)/C=N/c1cc(Br)c(OC2CCCC(Oc3ccccc3)C2)nc1C (stereo not drawn) [Q.241]
≥ 50%: [1] | [2] | [3] | Pyrenophora teres

CCN(C)/C=N/c1cc(Br)c(OC(C)c2ccc3cccnc3c2)nc1C (stereo not drawn) [Q.242]
≥ 50%: [1] | [2] | [3] | Pyrenophora teres

CCN(C)/C=N/c1cc(Br)c(OC2Cc3ccc(C)cc3C2)nc1C (stereo not drawn) [Q.243]
≥ 50%: [1] | [2] | [3] | Pyrenophora teres

CCN(C)/C=N/c1cc(Br)c(OC2CCOCC2)nc1C [Q.244]
≥ 50%: [1] | [2] | [3] | Pyrenophora teres

CCN(C)/C=N/c1cc(Br)c(OC(C)c2ccns2)nc1C (stereo not drawn) [Q.246]
≥ 50%: [1] | [2] | [3] | Pyrenophora teres

CCN(C)/C=N/c1cc(C(F)F)c(O[C@H]2CC[C@@H](C(C)C)CC2)nc1C [Q.247]
≥ 50%: [1] | [2] | [3] | Pyrenophora teres

CCN(C)/C=N/c1cc(OC)c(O[C@H]2CC[C@@H](C(C)C)CC2)nc1C [Q.248]
≥ 50%: [1] | [2] | [3] | Pyrenophora teres

CCN(C)/C=N/c1cc(C2CC2)c(O[C@H]2CC[C@@H](C(C)C)CC2)nc1C [Q.249]
≥ 50%: [1] | [2] | [3] | Pyrenophora teres

C#Cc1cc(/N=C/N(C)CC)c(C)nc1O[C@H]1CC[C@@H](C(C)C)CC1 [Q.250]
≥ 50%: [1] | [2] | [3] | Pyrenophora teres
